Laboratory results reported in US10124065B2, “Lipids and lipid compositions for the delivery of active agents” (Novartis AG, priority 2013, dated 2018).

Columns and labels:
human leptin = experiment: Mouse intravenous tail vein injection of modified synthetic leptin mRNA, human leptin ELISA; format: in vivo, C57BL/6 mouse; conditions: human leptin in mouse plasma, 10 μg leptin mRNA, 24 h
PLK-1 mRNA = experiment: LS411N Xenograft Assay; format: in vivo, Nu/Nu mice; conditions: percent knock down of PLK-1 mRNA vs control in LS411N tumors, IV 3 mg/kg daily for three days
Experimental: Female Nu/Nu mice (6-8 weeks old) were implanted subcutaneously with 5×10^6 LS411N cells. Tumor growth was monitored by caliper measurement before treatment initiation. Mice bearing 150-250 mm^3 subcutaneous tumors were randomized and enrolled in the study. The stock siRNA formulations were diluted to […] with PBS for dosing. Animals enrolled in different groups received a single daily bolus IV injection of 3 mg/kg siRNA for three days. Tumors were harvested 24 hours post last injection to assess target gene regulation by qRT-PCR.
Lipid nanoparticles comprising lipid compounds of formula (I) and the PLK1-424 siRNA duplex sequence listed above were tested in the LS411N Xenograft Assay. The results of this assay are given in Table 5 below as a percent knock down of PLK-1 mRNA as compared to the control when administered as a single daily dose for three days at a dose of 3 mg/kg.

[1] = system: plasma Factor VII enzyme activity; experiment: Mouse Factor VII dosing / Factor VII Activity Assay; format: in vivo; conditions: percent knock down of plasma Factor VII activity, CD-1 mice, 48 h; for KD FVII 0.3 mg/kg: single IV dose 0.3 mg/kg, LNP Chol/DSPC/PEG-DMG 45/44/9/2
In short: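 Female CD-1 mice (~25 g) received a single IV tail-vein dose of lipid-nanoparticle-formulated Factor VII siRNA (0.3 or 0.03 mg/kg). Plasma taken ~48 h later; FVII activity measured chromogenically against vehicle-control plasma standard curve, reported as % knockdown.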

Row | Compound | Leptin expression IV-C57BI/6, 24 h (human leptin) | LS411 KD 3 × 3 mg/Kg (PLK-1 mRNA; LNP Chol/DSPC/PEG-DSG 45/44/9/2) | LS411 KD 3 × 3 mg/Kg (PLK-1 mRNA; LNP Chol/DSPC/S010 45/44/9/2) | KD FVII 0.03 mg/kg ([1]; single IV dose 0.03 mg/kg, LNP Chol/DSPC/S010 45/44/9/2) | KD FVII 0.3 mg/kg [1]
1 | CCCCC/C=C\C/C=C\CCCCCCCC(=O)OCCCCOc1cc(CN(C)C)cc(OCCCCOC(=O)CCCCCCC/C=C\C/C=C\CCCCC)c1 [Example 38, (9Z,9′Z,12Z,12′Z)-((5-((dimethylamino)methyl)-1,3-phenylene)bis(oxy))bis(butane-4,1-diyl)bis(octadeca-9,12-dienoate)] | 17.21 ng/mL | 58% | 60% | 43.6% | 99%
2 | CCCCCCCCCCOC(=O)CCCCCCCOc1cc(CN(C)C)cc(OCCCCCCCC(=O)OCCCCCCCCCC)c1 [Example 57, didecyl 8,8′-((5-((dimethylamino)methyl)-1,3-phenylene)bis(oxy))dioctanoate] | 9.17 ng/mL |  | 60% |  | 96.7%
